{"source": "patent US20260068882A1", "about": "“ARTHROPOD CONTROLLING COMPOSITION” (Firmenich SA, priority 2019, published 2026)", "key": {"Aedes aegypti [1]": {"tested_on": "Aedes aegypti", "test": "In vivo arm in cage test on forearm of human volunteers", "details": "20% in ethanol on forearm; 0.05 h post application; three volunteers"}, "Aedes aegypti [2]": {"tested_on": "Aedes aegypti", "test": "In vitro K&D (Klun & Debboun) assay, mosquitoes biting through treated cloth over membrane-blood reservoir", "type": "in vivo", "protocol": "Controlling efficacy was tested against the yellow fever mosquito, A. aegypti Rockefeller strain.\nObservations of controlling efficacy were made on host-seeking females of uniform age, 5 to 10 days post-eclosion from pupae. Tested hungry females had access to 10% sugar solution but were not blood-fed.\nThe controlling efficacy in vitro was measured using the Klun & Debboun (K&D) assay test module [Klun J A, Kramer M, Debboun M. A new in vitro bioassay system for discovery of novel human-use mosquito controlling compounds. J Am Mosq Control Assoc. 2005; 21:64-70], which is an adaptation of the K&D module [Klun J A, Debboun M. A new module for quantitative evaluation of controlling efficacy using human subjects. J Med Entomol. 2000; 37:177-81.], initially developed and used for quantitative measurement of the efficacy of mosquito controlling compounds on human subjects.\nIn the in vitro assay the module is coupled with a membrane-blood reservoir, consisting of a unit with six wells that are filled with 7 mL defibrinated pig blood maintained at a constant temperature of 38° C. and covered with a bovine collagen film (Devro plc, Edicol-MX400 CLR 100M REEL) as the membrane. Over the membrane a piece of cotton cloth (Baptist Roh, 100% cotton, weight: 69.0 g/m^2, thread density: warp and woof 26.5×26.5 thread/cm, Modessa Basel) was placed after being treated with 80 μL of the tested stimuli.\nThe K&D unit, containing five mosquitoes in each cell was finally placed on top of the treated cloth. Then the numbers of mosquitoes biting in each cell within a 3-min exposure were recorded. This procedure was repeated until 6 replicate exposures and observations (i.e. 30 mosquitoes) were made."}, "Aedes aegypti [3]": {"tested_on": "Aedes aegypti", "test": "In vitro Warm Body assay, mosquitoes landing on treated warm body", "type": "in vivo", "details": "for % of mosquitoes' repellency: normalised to landing with 100% ethanol", "in_short": "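Adapted Warm Body assay with host-seeking, non-blood-fed, sugar-fed A. aegypti Rockefeller females aged 5–10 days (10–12 days in one set); cages held 30 (or 25) females at 150 lux. Landings were counted automatically. Doses in ethanol were 0.0016%, 0.04% and 1% in triplicate, or a single replicate across 0.0016–1%.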"}, "[4]": {"details": "Aedes aegypti, read-out: decrease of landings"}}}
{"smiles": "Cc1ccc2c(c1)CC(C)(CO)C2", "note": "(centres unmarked) [ingredient #2, (2,5-dimethyl-2,3-dihydro-1H-inden-2yl)methanol]", "values": [{"measurement": "% of repellency MEAN", "setting": "Aedes aegypti [1]", "result": 99.1, "unit": "%"}, {"measurement": "% repulsion", "setting": "Aedes aegypti [2]; 0.0008% in ethanol", "result": 21.5, "unit": "%"}, {"measurement": "% repulsion", "setting": "Aedes aegypti [2]; 0.004% in ethanol", "result": 25.3, "unit": "%"}, {"measurement": "% repulsion", "setting": "Aedes aegypti [2]; 0.02% in ethanol", "result": 33.8, "unit": "%"}, {"measurement": "% repulsion", "setting": "Aedes aegypti [2]; 0.1% in ethanol", "result": 57.1, "unit": "%"}, {"measurement": "% repulsion", "setting": "Aedes aegypti [2]; 0.5% in ethanol", "result": 84.6, "unit": "%"}, {"measurement": "% repulsion", "setting": "Aedes aegypti [2]; 2.5% in ethanol", "result": 92.3, "unit": "%"}, {"measurement": "concentration from which a significant repellent effect is shown", "setting": "Aedes aegypti [2]; on its own, in ethanol", "result": "≥ 0.1", "unit": "%"}, {"measurement": "% of mosquitoes' repellency", "setting": "Aedes aegypti [3]; 0.00032% concentration", "result": 18, "unit": "%"}, {"measurement": "% of mosquitoes' repellency", "setting": "Aedes aegypti [3]; 0.00071% concentration", "result": 46, "unit": "%"}, {"measurement": "% of mosquitoes' repellency", "setting": "Aedes aegypti [3]; 0.0016% concentration", "result": 14, "unit": "%"}, {"measurement": "number of mosquitoes landed on the Warm Body", "setting": "Aedes aegypti [3]; 0.0016% in ethanol (Table 7, one replicate)", "result": 68}, {"measurement": "% of mosquitoes' repellency", "setting": "Aedes aegypti [3]; 0.0036% concentration", "result": 46, "unit": "%"}, {"measurement": "% of mosquitoes' repellency", "setting": "Aedes aegypti [3]; 0.0053% concentration", "result": 0, "unit": "%"}, {"measurement": "% of mosquitoes' repellency", "setting": "Aedes aegypti [3]; 0.0080% concentration", "result": 26, "unit": "%"}, {"measurement": "number of mosquitoes landed on the Warm Body", "setting": "Aedes aegypti [3]; 0.008% in ethanol (Table 7, one replicate)", "result": 61}, {"measurement": "% of mosquitoes' repellency", "setting": "Aedes aegypti [3]; 0.018% concentration", "result": 26, "unit": "%"}, {"measurement": "% of mosquitoes' repellency", "setting": "Aedes aegypti [3]; 0.040% concentration", "result": 61, "unit": "%"}, {"measurement": "number of mosquitoes landed on the Warm Body", "setting": "Aedes aegypti [3]; 0.04% in ethanol (Table 7, one replicate)", "result": 22}, {"measurement": "% of mosquitoes' repellency", "setting": "Aedes aegypti [3]; 0.089% concentration", "result": 60, "unit": "%"}, {"measurement": "% of mosquitoes' repellency", "setting": "Aedes aegypti [3]; 0.20% concentration", "result": 80, "unit": "%"}, {"measurement": "number of mosquitoes landed on the Warm Body", "setting": "Aedes aegypti [3]; 0.2% in ethanol (Table 7, one replicate)", "result": 9}, {"measurement": "number of mosquitoes landed on the Warm Body", "setting": "Aedes aegypti [3]; 0.447% in ethanol (Table 7, one replicate)", "result": 3}, {"measurement": "% of mosquitoes' repellency", "setting": "Aedes aegypti [3]; 0.45% concentration", "result": 93, "unit": "%"}, {"measurement": "% of mosquitoes' repellency", "setting": "Aedes aegypti [3]; 1% concentration", "result": 91, "unit": "%"}, {"measurement": "number of mosquitoes landed on the Warm Body", "setting": "Aedes aegypti [3]; 1% in ethanol (Table 7, one replicate)", "result": 8}, {"measurement": "pest or weed control at 0.0016 %", "setting": "Aedes aegypti [3]; [4]", "result": "4 to 29", "unit": "%"}, {"measurement": "pest or weed control at 0.04 %", "setting": "Aedes aegypti [3]; [4]", "result": "~70", "unit": "%"}, {"measurement": "repulsion (in words)", "setting": "Aedes aegypti [3]; concentrations lower than 0.04%", "result": "only low repulsion"}]}
